Reference: patent publication US11592451B2, “Method for the preselection of drugs for protein misfolding diseases” (betaSENSE GmbH, priority 2016, dated 2023)
“Also recorded” adds a separate entry of the source.

Experiments:
Aβ1-42 = molecular target: T1, Aβ1-42 (Homo sapiens, UniProt P05067); assay: ATR-FTIR sensor drug-screening assay: synthetic Aβ1-42 captured on antibody A8978 terminated germanium, auto-induced fibrilization monitored by amide I band; assay type: biochemical
T1 construct: Amyloid-beta-Protein fragment 1-42; purchased Sigma-Aldrich A9810; host or cells: synthetic peptide
T1 sequence (P05067 672-713 limits assumed): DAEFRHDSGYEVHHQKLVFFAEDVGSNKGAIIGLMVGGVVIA
Text: The present invention is based on the detection of secondary structural changes induced by the potential drug by means of vibrational spectroscopy. […] Instead of a 70V (Bruker) we employed an 80V FTIR spectrometer (Bruker) to improve the signal to noise ratio of the measurements. As internal reflection element germanium crystal were chemically modified with NHS-silanes, which function as anchors for the covalent attachment of the desired antibodies. After blocking the surface with casein the surface is ready for capturing of the target protein (Tau or Aβ1-42). […] The target protein was analyzed in the presence of the potential drug and the effect was monitored by the change in the amide I band. […] Another example is the study of the second important biomarker Aβ1-42. Since the developed sensor is universal, the antibody A8978 against the epitope 13-28 of Aβ1-42 could be applied for the analysis of the potential drug berberine. To monitor a potential effect of berberine the surface was loaded with synthetic Aβ1-42.
The human Aβ-peptide was purchased from Sigma-Aldrich (A9810, Amyloid-beta-Protein fragment 1-42).
IR-measurements were performed on a Vertex 80V spectrometer (Bruker Optics GmbH, Ettlingen, Germany) with liquid nitrogen cooled mercury-cadmium-telluride (MCT) detector. Double-sided interferograms were recorded in forward-backward interferometer movement at a 80 kHz data rate with a spectral resolution of 2 cm^−1, Blackman-Harris-3-Term-apodisation, Mertz-phase correction and 4 times zero filling. Reference spectra were recorded as an average of 1000, sample spectra of 200 interferograms. Recording reference single channel spectra of the blank sensor, sensor with 2-propanol, the silanized surface, the buffers, antibody or casein coated surface in equilibrium states enabled high sensitivity difference spectroscopy based on Lambert-Beer law (E=−log(I/I0). The absorbance of the state change is the negative decadic logarithm of the intensity relation before and after the change.
The antibody A8979 (Sigma-aldrich) was employed for capturing the Aβ-peptide (Nabers et al., Anal. Chem. 88(5):2755-62 doi:10.1021/acs.analchem.5b04286 (2016)). The Aβ-peptide (Aβ1-42, synthetic, Sigma-aldrich, Taufkrichen, Germany) was monomerized by incubation with hexafluoro-2-propanol as described elsewhere (Nabers et al., J. Biophotonics 9(3):224-34 doi:10.1002/jbio.201400145 (2016)).

memory function = settings: rat models; cited from earlier work
Tau protein = assay: ATR-FTIR sensor drug-screening assay: Tau protein captured from human CSF on antibody Tau-5 terminated germanium, amide I band monitored; assay type: biochemical; settings: Tau extracted from CSF; methylene blue 50 μM, berberine 100 μM
Text: The present invention is based on the detection of secondary structural changes induced by the potential drug by means of vibrational spectroscopy. […] Instead of a 70V (Bruker) we employed an 80V FTIR spectrometer (Bruker) to improve the signal to noise ratio of the measurements. As internal reflection element germanium crystal were chemically modified with NHS-silanes, which function as anchors for the covalent attachment of the desired antibodies. After blocking the surface with casein the surface is ready for capturing of the target protein (Tau or Aβ1-42). The Tau protein was directly extracted out of human CSF. […] The target protein was analyzed in the presence of the potential drug and the effect was monitored by the change in the amide I band. […]
IR-measurements were performed on a Vertex 80V spectrometer (Bruker Optics GmbH, Ettlingen, Germany) with liquid nitrogen cooled mercury-cadmium-telluride (MCT) detector. Double-sided interferograms were recorded in forward-backward interferometer movement at a 80 kHz data rate with a spectral resolution of 2 cm^−1, Blackman-Harris-3-Term-apodisation, Mertz-phase correction and 4 times zero filling. Reference spectra were recorded as an average of 1000, sample spectra of 200 interferograms. […]

- shoulder of amide I band (β-sheet enriched isoforms) of Aβ1-42 in presence of drug (Aβ1-42; 100 μM berberine): 1634 cm⁻¹
- shift of the amide I maximum of Aβ1-42 versus no drug (Aβ1-42; 100 μM berberine, 18 h): 25 cm⁻¹
- amide I maximum of Aβ1-42 in presence of drug (Aβ1-42; 100 μM berberine, 18 h total, without drug 1634 cm^−1): 1659 cm⁻¹
Compound: COc1ccc2cc3[n+](cc2c1OC)CCc1cc2c(cc1-3)OCO2 [berberine, berberine chloride]
- effect on secondary structure distribution / fibrilization of Aβ1-42 (Aβ1-42; synthetic Aβ1-42, drug 100 μM, same conditions for both drugs): shifts the distribution mainly to α-helix; also recorded: directly decelerates the aggregation process of Aβ1-42; also recorded: decelerates the auto-induced fibrilization of Aβ1-42
- effect on memory function (memory function): positive effect on the memory function
- effect on secondary structure distribution of Tau protein (Tau protein): did not change the secondary structure distribution; also recorded: no significant effect on the Tau protein
